Measured values as given in paper PMC6409085, “Three odorant-binding proteins are involved in the behavioral response of Sogatella furcifera to rice plant volatiles” (PeerJ, 2019).
Values joined by “and” are separate entries in the source; they are usually repeats but may differ in a detail not shown here. Identical values can stand only once.

Columns and labels:
S. furcifera adults = experiment: Y-tube olfactometer behavioral trials; assay type: in vivo, Sogatella furcifera; conditions: odorant 50 µL/L vs hexane
Outline: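 Single S. furcifera adults (2 days post-emergence, starved 0.5 h) chose between odorant (100 µL of 50 µL/L on filter paper) and hexane control in a glass Y-tube, charcoal-filtered humidified air 300 mL/min per arm, 25 ± 1 °C, 50% RH. Choice scored if insect passed half an arm and stayed >1 min within 10 min; 45 insects per compound, chi-squared test.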

SfurOBP3 = SfurOBP3 (Sogatella furcifera, UniProt V5T818); experiment: biochemical; assay type: binding; conditions: for Fluorescence competitive binding assay, fluorescence intensity: OBP3, three replicate columns
Outline: (§1)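 Protein 2.0 µM + 1-NPN 2.0 µM, 50 mM Tris-HCl pH 7.4; competitor odorants 2, 4 … 20 µM final; read 2 min post-addition, ex 337/em 390–490 nm; n=3. K1-NPN from 1-NPN titration/Scatchard; Ki from IC50 corrected for free 1-NPN.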

SfurOBP2 = SfurOBP2 (Sogatella furcifera, UniProt V5T759); experiment: biochemical; assay type: binding
Outline: as §1

SfurOBP1 = SfurOBP1 (Sogatella furcifera, UniProt V5T8N5); experiment: biochemical; assay type: binding; conditions: for Fluorescence competitive binding assay, fluorescence intensity: OBP1, three replicate columns
Outline: as §1

SfurOBP11 = SfurOBP11 (Sogatella furcifera, UniProt V5T6E3); experiment: biochemical; assay type: binding
Outline: as §1

SfurOBP11, sequence (V5T6E3 entry or part of it): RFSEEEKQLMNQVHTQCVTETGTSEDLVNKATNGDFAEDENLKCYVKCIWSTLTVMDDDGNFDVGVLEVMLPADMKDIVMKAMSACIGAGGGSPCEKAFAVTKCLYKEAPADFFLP
SfurOBP3, sequence (V5T818 entry or part of it): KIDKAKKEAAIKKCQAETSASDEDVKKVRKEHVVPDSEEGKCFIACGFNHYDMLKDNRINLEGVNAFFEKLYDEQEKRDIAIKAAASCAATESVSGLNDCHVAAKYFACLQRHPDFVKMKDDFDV
SfurOBP2, sequence (V5T759 entry or part of it): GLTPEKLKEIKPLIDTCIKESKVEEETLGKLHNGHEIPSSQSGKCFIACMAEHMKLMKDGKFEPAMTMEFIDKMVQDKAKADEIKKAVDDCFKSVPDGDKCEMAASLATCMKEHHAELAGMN
SfurOBP1, sequence (V5T8N5 entry or part of it): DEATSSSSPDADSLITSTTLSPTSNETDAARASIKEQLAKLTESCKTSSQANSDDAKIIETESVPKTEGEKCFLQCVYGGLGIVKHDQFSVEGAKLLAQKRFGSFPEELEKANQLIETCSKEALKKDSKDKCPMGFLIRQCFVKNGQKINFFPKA

Fluorescence competitive binding assay, fluorescence intensity (SfurOBP3; ligand concentration 2): 37101 and 37506 and 37304
Fluorescence competitive binding assay, fluorescence intensity (SfurOBP3; ligand concentration 4): 36141 and 37871 and 37816
Fluorescence competitive binding assay, fluorescence intensity (SfurOBP3; ligand concentration 6): 36419 and 39158 and 37789
Fluorescence competitive binding assay, fluorescence intensity (SfurOBP3; ligand concentration 8): 33665 and 34797 and 35932
Fluorescence competitive binding assay, fluorescence intensity (SfurOBP3; ligand concentration 10): 33290 and 35900 and 35256
Fluorescence competitive binding assay, fluorescence intensity (SfurOBP3; ligand concentration 12): 29962 and 33001 and 33859
Fluorescence competitive binding assay, fluorescence intensity (SfurOBP3; ligand concentration 14): 28260 and 30707 and 32190
Fluorescence competitive binding assay, fluorescence intensity (SfurOBP3; ligand concentration 16): 28891 and 29426 and 29159
Fluorescence competitive binding assay, fluorescence intensity (SfurOBP3; ligand concentration 18): 26989 and 27471 and 26506
Fluorescence competitive binding assay, fluorescence intensity (SfurOBP3; ligand concentration 20): 26994 and 26547 and 27440
binding affinity to SfurOBP3 (in words) (SfurOBP3; SfurOBP3): high binding affinities
IC50 (SfurOBP3; SfurOBP3, protein and 1-NPN both 2.0 µM, competitor 2-20 µM, read-out: IC50): 15.5 µM
IC50 (SfurOBP2; SfurOBP2, protein and 1-NPN both 2.0 µM, competitor 2-20 µM, read-out: IC50): > 20 µM
Fluorescence competitive binding assay, OBP2 (raw fluorescence reading) (SfurOBP2; ligand concentration 2 (unit not given), replicate column 1 of 3): 19792
Fluorescence competitive binding assay, OBP2 (raw fluorescence reading) (SfurOBP2; ligand concentration 2 (unit not given), replicate column 2 of 3): 17859
Fluorescence competitive binding assay, OBP2 (raw fluorescence reading) (SfurOBP2; ligand concentration 2 (unit not given), replicate column 3 of 3): 20079
Fluorescence competitive binding assay, OBP2 (raw fluorescence reading) (SfurOBP2; ligand concentration 4 (unit not given), replicate column 1 of 3): 17338
Fluorescence competitive binding assay, OBP2 (raw fluorescence reading) (SfurOBP2; ligand concentration 4 (unit not given), replicate column 2 of 3): 18012
Fluorescence competitive binding assay, OBP2 (raw fluorescence reading) (SfurOBP2; ligand concentration 4 (unit not given), replicate column 3 of 3): 20388
Fluorescence competitive binding assay, OBP2 (raw fluorescence reading) (SfurOBP2; ligand concentration 6 (unit not given), replicate column 1 of 3): 17013
Fluorescence competitive binding assay, OBP2 (raw fluorescence reading) (SfurOBP2; ligand concentration 6 (unit not given), replicate column 2 of 3): 18530
Fluorescence competitive binding assay, OBP2 (raw fluorescence reading) (SfurOBP2; ligand concentration 6 (unit not given), replicate column 3 of 3): 19352
Fluorescence competitive binding assay, OBP2 (raw fluorescence reading) (SfurOBP2; ligand concentration 8 (unit not given), replicate column 1 of 3): 15771
Fluorescence competitive binding assay, OBP2 (raw fluorescence reading) (SfurOBP2; ligand concentration 8 (unit not given), replicate column 2 of 3): 11853
Fluorescence competitive binding assay, OBP2 (raw fluorescence reading) (SfurOBP2; ligand concentration 8 (unit not given), replicate column 3 of 3): 17932
Fluorescence competitive binding assay, OBP2 (raw fluorescence reading) (SfurOBP2; ligand concentration 10 (unit not given), replicate column 1 of 3): 15741
Fluorescence competitive binding assay, OBP2 (raw fluorescence reading) (SfurOBP2; ligand concentration 10 (unit not given), replicate column 2 of 3): 17236
Fluorescence competitive binding assay, OBP2 (raw fluorescence reading) (SfurOBP2; ligand concentration 10 (unit not given), replicate column 3 of 3): 17972
Fluorescence competitive binding assay, OBP2 (raw fluorescence reading) (SfurOBP2; ligand concentration 12 (unit not given), replicate column 1 of 3): 14577
Fluorescence competitive binding assay, OBP2 (raw fluorescence reading) (SfurOBP2; ligand concentration 12 (unit not given), replicate column 2 of 3): 14468
Fluorescence competitive binding assay, OBP2 (raw fluorescence reading) (SfurOBP2; ligand concentration 12 (unit not given), replicate column 3 of 3): 15583
Fluorescence competitive binding assay, OBP2 (raw fluorescence reading) (SfurOBP2; ligand concentration 14 (unit not given), replicate column 1 of 3): 14055
Fluorescence competitive binding assay, OBP2 (raw fluorescence reading) (SfurOBP2; ligand concentration 14 (unit not given), replicate column 2 of 3): 13126
Fluorescence competitive binding assay, OBP2 (raw fluorescence reading) (SfurOBP2; ligand concentration 14 (unit not given), replicate column 3 of 3): 14409
Fluorescence competitive binding assay, OBP2 (raw fluorescence reading) (SfurOBP2; ligand concentration 16 (unit not given), replicate column 1 of 3): 12777
Fluorescence competitive binding assay, OBP2 (raw fluorescence reading) (SfurOBP2; ligand concentration 16 (unit not given), replicate column 2 of 3): 13653
Fluorescence competitive binding assay, OBP2 (raw fluorescence reading) (SfurOBP2; ligand concentration 16 (unit not given), replicate column 3 of 3): 13817
Fluorescence competitive binding assay, OBP2 (raw fluorescence reading) (SfurOBP2; ligand concentration 18 (unit not given), replicate column 1 of 3): 17551
Fluorescence competitive binding assay, OBP2 (raw fluorescence reading) (SfurOBP2; ligand concentration 18 (unit not given), replicate column 2 of 3): 16085
Fluorescence competitive binding assay, OBP2 (raw fluorescence reading) (SfurOBP2; ligand concentration 18 (unit not given), replicate column 3 of 3): 21813
Fluorescence competitive binding assay, OBP2 (raw fluorescence reading) (SfurOBP2; ligand concentration 20 (unit not given), replicate column 1 of 3): 14165
Fluorescence competitive binding assay, OBP2 (raw fluorescence reading) (SfurOBP2; ligand concentration 20 (unit not given), replicate column 2 of 3): 14167
Fluorescence competitive binding assay, OBP2 (raw fluorescence reading) (SfurOBP2; ligand concentration 20 (unit not given), replicate column 3 of 3): 13571
Fluorescence competitive binding assay, fluorescence intensity (SfurOBP1; ligand concentration 2 (μM)): 5565 and 5797 and 5680
Fluorescence competitive binding assay, fluorescence intensity (SfurOBP1; ligand concentration 4 (μM)): 6133 and 7369 and 7766
Fluorescence competitive binding assay, fluorescence intensity (SfurOBP1; ligand concentration 6 (μM)): 7319 and 6450 and 6758
Fluorescence competitive binding assay, fluorescence intensity (SfurOBP1; ligand concentration 8 (μM)): 6247 and 6677 and 6608
Fluorescence competitive binding assay, fluorescence intensity (SfurOBP1; ligand concentration 10 (μM)): 5974 and 6580 and 6200
Fluorescence competitive binding assay, fluorescence intensity (SfurOBP1; ligand concentration 12 (μM)): 6115 and 6844 and 6487
Fluorescence competitive binding assay, fluorescence intensity (SfurOBP1; ligand concentration 14 (μM)): 7227 and 6939 and 7296
Fluorescence competitive binding assay, fluorescence intensity (SfurOBP1; ligand concentration 16 (μM)): 7221 and 7791 and 6651
Fluorescence competitive binding assay, fluorescence intensity (SfurOBP1; ligand concentration 18 (μM)): 6902 and 6623 and 6730
Fluorescence competitive binding assay, fluorescence intensity (SfurOBP1; ligand concentration 20 (μM)): 6454 and 6429 and 6479
IC50 (SfurOBP1; SfurOBP1, protein and 1-NPN both 2.0 µM, competitor 2-20 µM, read-out: IC50): > 20 µM
IC50 (SfurOBP11; SfurOBP11, protein and 1-NPN both 2.0 µM, competitor 2-20 µM, read-out: IC50): > 20 µM
Fluorescence intensity, fluorescence competitive binding assay, OBP11 (SfurOBP11; ligand concentration 2, replicate 1): 24306
Fluorescence intensity, fluorescence competitive binding assay, OBP11 (SfurOBP11; ligand concentration 2, replicate 2): 24787
Fluorescence intensity, fluorescence competitive binding assay, OBP11 (SfurOBP11; ligand concentration 2, replicate 3): 25268
Fluorescence intensity, fluorescence competitive binding assay, OBP11 (SfurOBP11; ligand concentration 4, replicate 1): 24848
Fluorescence intensity, fluorescence competitive binding assay, OBP11 (SfurOBP11; ligand concentration 4, replicate 2): 24623
Fluorescence intensity, fluorescence competitive binding assay, OBP11 (SfurOBP11; ligand concentration 4, replicate 3): 25072
Fluorescence intensity, fluorescence competitive binding assay, OBP11 (SfurOBP11; ligand concentration 6, replicate 1): 24984
Fluorescence intensity, fluorescence competitive binding assay, OBP11 (SfurOBP11; ligand concentration 6, replicate 2): 24187
Fluorescence intensity, fluorescence competitive binding assay, OBP11 (SfurOBP11; ligand concentration 6, replicate 3): 25781
Fluorescence intensity, fluorescence competitive binding assay, OBP11 (SfurOBP11; ligand concentration 8, replicate 1): 23438
Fluorescence intensity, fluorescence competitive binding assay, OBP11 (SfurOBP11; ligand concentration 8, replicate 2): 23156
Fluorescence intensity, fluorescence competitive binding assay, OBP11 (SfurOBP11; ligand concentration 8, replicate 3): 23719
Fluorescence intensity, fluorescence competitive binding assay, OBP11 (SfurOBP11; ligand concentration 10, replicate 1): 22448
Fluorescence intensity, fluorescence competitive binding assay, OBP11 (SfurOBP11; ligand concentration 10, replicate 2): 22213
Fluorescence intensity, fluorescence competitive binding assay, OBP11 (SfurOBP11; ligand concentration 10, replicate 3): 22684
Fluorescence intensity, fluorescence competitive binding assay, OBP11 (SfurOBP11; ligand concentration 12, replicate 1): 22134
Fluorescence intensity, fluorescence competitive binding assay, OBP11 (SfurOBP11; ligand concentration 12, replicate 2): 22969
Fluorescence intensity, fluorescence competitive binding assay, OBP11 (SfurOBP11; ligand concentration 12, replicate 3): 22151
Fluorescence intensity, fluorescence competitive binding assay, OBP11 (SfurOBP11; ligand concentration 14, replicate 1): 21048
Fluorescence intensity, fluorescence competitive binding assay, OBP11 (SfurOBP11; ligand concentration 14, replicate 2): 20368
Fluorescence intensity, fluorescence competitive binding assay, OBP11 (SfurOBP11; ligand concentration 14, replicate 3): 20708
Fluorescence intensity, fluorescence competitive binding assay, OBP11 (SfurOBP11; ligand concentration 16, replicate 1): 19801
Fluorescence intensity, fluorescence competitive binding assay, OBP11 (SfurOBP11; ligand concentration 16, replicate 2): 20307
Fluorescence intensity, fluorescence competitive binding assay, OBP11 (SfurOBP11; ligand concentration 16, replicate 3): 20932
Fluorescence intensity, fluorescence competitive binding assay, OBP11 (SfurOBP11; ligand concentration 18, replicate 1): 20181
Fluorescence intensity, fluorescence competitive binding assay, OBP11 (SfurOBP11; ligand concentration 18, replicate 2): 20256
Fluorescence intensity, fluorescence competitive binding assay, OBP11 (SfurOBP11; ligand concentration 18, replicate 3): 20300
Fluorescence intensity, fluorescence competitive binding assay, OBP11 (SfurOBP11; ligand concentration 20, replicate 1): 20105
Fluorescence intensity, fluorescence competitive binding assay, OBP11 (SfurOBP11; ligand concentration 20, replicate 2): 20028
Fluorescence intensity, fluorescence competitive binding assay, OBP11 (SfurOBP11; ligand concentration 20, replicate 3): 20212
Structure (SMILES): CCCCCC(C)=O [2-heptanone]
behavioral response of S. furcifera (in words) (S. furcifera adults): strongly attracted
number of insects choosing hexane arm (S. furcifera adults; adults): 8
number of insects choosing volatilies arm (S. furcifera adults; adults): 21
number of insects failed (no choice) (S. furcifera adults; adults): 11
